Experimental data as given in patent publication US8178506B2, “Oligomeric compounds and compositions for use in modulation of small non-coding RNAs” (Regulus Therapeutics Inc., priority 2003, dated 2012).
In the oligonucleotide strings, read from the 5' end, every base follows the letter of its sugar. An asterisk marks phosphorothioate; unmarked linkages are phosphodiester. Other units and linkages are bracketed, terminal groups are in braces. A string of capitals states the bases alone. e = 2'-O-(2-methoxyethyl) (MOE); [5mC] = 5-methylcytosine

System: mir-21 miRNA
Test: pGL3-mir-21 sensor luciferase assay in HeLa cells
Type: cell-based, human
Summary of the method: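 HeLa cells were transiently transfected with pGL3-Control carrying a mir-21-complementary site in the luciferase 3′UTR, which endogenous mir-21 silences. 2′-MOE oligomeric compounds were given at 10 or 50 nM, or at 1.9, 5.5, 16.7 and 50 nM for dose response. Luciferase was normalized to pRL-CMV and expressed as percent of the plasmid-only untreated control.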

[1] = Table 44, pGL3-mir-21 sensor-expressing HeLa cells, 10 nM
[2] = Table 44, pGL3-mir-21 sensor-expressing HeLa cells, 50 nM

327917 (antisense eT*e[5mC]*eA*eA*e[5mC]*eA*eT*e[5mC]*eA*eG*eT*e[5mC]*eT*eG*eA*eT*eA*eA*eG*e[5mC]*eT*eA) [compound 327917]
luciferase expression % UTC [1]: 1037.6 % UTC
luciferase expression % UTC [2]: 847.5 % UTC
luciferase expression % UTC (Table 50, pGL3-mir-21 sensor-expressing HeLa cells, 1.9 nM, normalized to pRL-CMV): 522 % UTC
luciferase expression % UTC (Table 50, pGL3-mir-21 sensor-expressing HeLa cells, 5.5 nM, normalized to pRL-CMV): 1293 % UTC
luciferase expression % UTC (Table 50, pGL3-mir-21 sensor-expressing HeLa cells, 16.7 nM, normalized to pRL-CMV): 2470 % UTC
luciferase expression % UTC (Table 50, pGL3-mir-21 sensor-expressing HeLa cells, 50 nM, normalized to pRL-CMV): 4534 % UTC

327901 (antisense eT*eG*eA*eG*e[5mC]*eT*eA*e[5mC]*eA*eG*eT*eG*e[5mC]*eT*eT*e[5mC]*eA*eT*e[5mC]*eT*e[5mC]*eA) [compound 327901]
luciferase expression % UTC [1]: 74.2 % UTC
luciferase expression % UTC [2]: 83.1 % UTC
